# Test results from PMC6691587, “New CXCR1/CXCR2 inhibitors represent an effective treatment for kidney or head and neck cancers sensitive or refractory to reference treatments” (Theranostics, 2019).
# Values joined by “and” are separate entries in the source; they are usually repeats but may differ in a detail not shown here. Equal entries are not always repeated. “Also recorded” adds a separate entry of the source. Where two headings read alike, the source gives them in different places.
# Key:
# CAL27 = assay: XTT cell viability assay, CAL27 HNSCC cells; type: cell-based, human; details: for IC50: Homo sapiens, CAL-27
# Protocol: (§1) Fifty microliters of sodium 3′-[1-phenylaminocarbonyl)-3,4-tetrazolium]-bis(4-methoxy-6-nitro) benzene sulfonic acid hydrate (XTT) reagent was added to each well. The assay is based on the cleavage of the yellow tetrazolium salt XTT to form an orange formazan dye by metabolically active cells. This bio-reduction occurs in viable cells only and is related to NAD(P)H production through glycolysis. Therefore, the amount of formazan dye measured at 490 nm directly correlated with the number of metabolically active cells reflecting cell proliferation and viability. Each assay was performed in quadruplicate.
# A498 = assay: XTT cell viability assay, A498 RCC cells; type: cell-based, human; details: for IC50: Homo sapiens, A498
# Protocol: as §1
# OCI-AML2 = assay: XTT cell viability assay, OCI-AML2 AML cells; type: cell-based, human; details: Homo sapiens, OCI-AML2, 48 h, SD 10%, mean of three experiments, read-out: IC50 L2 (AML)
# Protocol: as §1
# Molm13 = assay: XTT cell viability assay, Molm13 AML cells; type: cell-based, human; details: Homo sapiens, MOLM-13, 48 h, SD 10%, mean of three experiments
# Protocol: as §1
# Molm14 = assay: XTT cell viability assay, Molm14 AML cells; type: cell-based, human; details: Homo sapiens, MOLM-14, 48 h, SD 10%, mean of three experiments
# Protocol: as §1
# [1] = test system: primary normal kidney cells (15S); assay: Cell viability, primary normal kidney cells; type: cell-based
# Protocol: as §1
# For the experiments with C29, we confirmed all the results by evaluating the cell viability. Cell viability and cell death was assessed using the ADAM-MC apparatus (NanoEnTek, Guro-gu, Seoul, Korea) based on fluorescent propidium iodide staining according to the manufacturer's instructions.
# To determine the selectivity of the activity of the substances tested, the selectivity index (SI) was calculated according to the equation previously described where SI = IC50 of a compound in a normal cell line/IC50 of the same compound in cancer cell line. The IC50 is the concentration required to kill 50% of the cell population.
# CXCR2 = target: T1, CXCR2 (Homo sapiens, UniProt P25025); assay: Membrane-associated CXCR2 level in HuVEC by flow cytometry; type: cell-based; details: CXCL8 25 ng/ml 1 h, C29 2.5 µmol/L
# T1 construct: CXCR1/2 are expressed on endothelial cells and participate in ELR^+CXCL-mediated angiogenesis; endogenous in cells; host or cells: HuVEC
# Protocol: CXCR2 measurement: After stimulation, cells were washed with PBS and stained with the CXCR2-PE antibody (Miltenyi) for 30 min at room temperature. Fluorescence was measured using the FL2 (PE) channels of a fluorescence-activated cell sorter apparatus (Calibur cytometer).
# HuVEC = assay: XTT cell viability assay, HuVEC; type: cell-based, human; details: 48 h, CXCL5 or CXCL7 100 ng/ml
# Protocol: as §1
# [2] = test system: ERK/MAP Kinase signaling pathway; assay: p-ERK immunoblotting in HuVEC; type: cell-based, human; details: 5 µM C29 1 h, CXCL5 50 ng/ml 10 min
# Protocol: (§2) Cells were lysed in buffer containing 3% SDS, 10% glycerol and 0.825 mM Na2HPO4. 30 to 50 μg of proteins separated on 10% SDS-PAGE, transferred onto a PVDF membrane and then exposed to the appropriate antibodies. Proteins were visualized with the ECL system using horseradish peroxidase-conjugated anti-rabbit or anti-mouse antibodies.
# [3] = test system: sunitinib-resistant 786-O cells (786R); assay: XTT cell viability assay, sunitinib-resistant 786-O cells; type: cell-based, human; details: 1 to 10 µM 48 h, 2.5 µM 24 to 96 h
# Protocol: as §1
# [4] = test system: ERK/MAP Kinase and PI3K/AKT signaling pathways; assay: p-ERK and p-AKT immunoblotting in RCC and HNSCC cells; type: cell-based, human; details: naive and resistant RCC and HNSCC cells, 2.5 µM, 1 h to 48 h
# Protocol: as §2
# [5] = In vitro (in cellulo) stability assay; type: in vitro ADME, human; details: 786-O cells, 2.5 µM, 24 h at room temperature, UPLCMS/MS
# Protocol: The in vitro stability was determined as followed: 786-O cells were treated with 2.5 µM of compound C29 for the defined time, then lysed with methanol. The lysates were filtered and analyzed by UPLCMS/MS.
# [6] = Pharmacokinetic parameters after oral administration; type: in vivo; details: plasma, CD-1 mice, oral gavage 50 mg/kg
# Protocol: The in vivo pharmacokinetic parameters were determined in CD-1 mice at a dose of 50 mg/kg after oral administration. The plasma samples (400 µL) were mixed with acetonitrile (1 mL) to precipitate the proteins and extract the compound. After mixing and sonication, proteins were precipitated by centrifugation and the supernatants were analyzed by UPLCMS/MS.
# [7] = Hematological, renal and hepatic toxicity; type: in vivo
# [8] = C29 100mg/kg oral gavage, three weeks, ns vs CT
# T1 sequence (P25025 whole entry): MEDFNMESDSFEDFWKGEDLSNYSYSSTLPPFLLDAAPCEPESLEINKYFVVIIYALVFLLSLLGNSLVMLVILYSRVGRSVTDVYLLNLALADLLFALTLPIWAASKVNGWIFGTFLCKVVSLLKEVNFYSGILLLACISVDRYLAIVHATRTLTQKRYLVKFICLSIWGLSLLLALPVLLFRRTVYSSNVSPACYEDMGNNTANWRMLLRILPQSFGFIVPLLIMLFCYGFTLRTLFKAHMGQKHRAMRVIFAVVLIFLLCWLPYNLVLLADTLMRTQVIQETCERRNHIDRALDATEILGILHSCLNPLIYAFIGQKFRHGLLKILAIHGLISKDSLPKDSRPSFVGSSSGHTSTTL
structure (smiles),measurement,setting,value
O=C(Nc1cccc(Cl)c1)Nc1nc2ccc([N+](=O)[O-])cc2s1 [C29],IC50,"CAL27; CXCR1+/CXCR2+, read-out: IC50 CAL27",2.5 µM
same,IC50,"CAL27; XTT assay, 48 h, SD 10%, mean of three experiments, read-out: IC50 27 (HNSCC)",2.5 µM
same,Selectivity index CAL27,CAL27; SI = IC50 in normal cells (15S)/IC50 in CAL27,5
same,effect on CAL27 HNSCC cell viability compared with cisplatin,"CAL27; XTT, 1 to 10 µM 48 h, 2.5 µM 24 to 96 h",greater than that of cisplatin
same,IC50,"A498; CXCR1+/CXCR2+, read-out: IC50 A498",2.5 µM
same,IC50,"A498; XTT assay, 48 h, SD 10%, mean of three experiments, read-out: IC50 498 (Kidney RCC)",2.5 µM
same,Selectivity index A498,A498; SI = IC50 in normal cells (15S)/IC50 in A498,5
same,IC50,OCI-AML2,5 µM
same,IC50,Molm13,7 µM
same,IC50,Molm14,4 µM
same,IC50,"[1]; CXCR1-/CXCR2-, normal primary kidney cells",12.5 µM
same,Selectivity index 15S,"[1]; SI = IC50 in normal cell line (15S)/IC50 in this cell line, reference",1
same,effect on primary normal kidney cells (15S),[1]; even at a higher concentration (5 µmol/L),no effect
same,CXCR2 levels at the plasma membrane,CXCR2,increased
same,basal and CXCL5/CXCL7-dependent HuVECs viability,HuVEC,inhibited
same,basal and CXCL5-dependent ERK/MAP Kinase signaling (p-ERK),[2],inhibition
same,effect on cell viability of sunitinib-resistant 786-O cells,[3],conserved
same,"ERK/MAP Kinase and PI3K/AKT signaling pathways (p-ERK, p-AKT)",[4],inhibited
same,stability in cellulo (degradation),[5],No degradation; also recorded: absence of degradation
same,half-life,"[6]; CD-1, mouse, po, 50 mg/kg, formulated at 7.6 mg/mL, read-out: half-life (t ½)",3.17 h
same,AUC,[6]; mouse,~1420 ng·h/mL
same,Cmax,[6]; mouse,900 ng/mL and 2.6 µM
same,Tmax,[6]; mouse,0.5 h
same,AUC(0-t),"[6]; mouse, read-out: AUC last PO (converted)",1420 ng·h/mL
same,"hematological, renal or hepatic toxicity",[7]; 100mg/kg by oral gavage five times a week for three weeks,"did not induce hematological, renal or hepatic toxicity"
same,Basophils,[7]; [8],0.07089 ± 0.02 k/µl
same,Eosinophils,[7]; [8],0.1760 ± 0.04 k/µl
same,Hematocrit,[7]; [8],26.22 ± 2.45%
same,Hemoglobin,[7]; [8],14.67 ± 1.22 g/dL
same,Leucocytes,[7]; [8],4.239 ± 0.60 k/µl
same,Lymphocytes,[7]; [8],2.943 ± 0.38 k/µl
same,Mean Corpuscular Volume,[7]; [8],112.0 ± 1.054 fL
same,Mean corpuscular hemoglobin,[7]; [8],31.46 ± 0.79 pg
same,Mean platelet volume,[7]; [8],12.81 ± 0.08 fL
same,Monocytes,[7]; [8],0.2664 ± 0.04 k/µl
same,Neutrophils,[7]; [8],0.6760 ± 0.11 k/µl
same,Platelets,[7]; [8],375.7 ± 77.93 k/µl
same,Red blood cells,[7]; [8],10.33 ± 0.98 M/µl
